For orientation: IC50 means the midpoint of a concentration-inhibition curve.

Where two headings read alike, the source gives them in different places.

The target of experiment [1] is T1, ERα (Homo sapiens, UniProt P03372).
T1 construct: ERα-positive T47DKBluc cells were grown in phenol red-free RPMI 1640; endogenous in cells; host or cells: T47DKBluc (ATCC CRL-2865)
T1 sequence (P03372 1-595): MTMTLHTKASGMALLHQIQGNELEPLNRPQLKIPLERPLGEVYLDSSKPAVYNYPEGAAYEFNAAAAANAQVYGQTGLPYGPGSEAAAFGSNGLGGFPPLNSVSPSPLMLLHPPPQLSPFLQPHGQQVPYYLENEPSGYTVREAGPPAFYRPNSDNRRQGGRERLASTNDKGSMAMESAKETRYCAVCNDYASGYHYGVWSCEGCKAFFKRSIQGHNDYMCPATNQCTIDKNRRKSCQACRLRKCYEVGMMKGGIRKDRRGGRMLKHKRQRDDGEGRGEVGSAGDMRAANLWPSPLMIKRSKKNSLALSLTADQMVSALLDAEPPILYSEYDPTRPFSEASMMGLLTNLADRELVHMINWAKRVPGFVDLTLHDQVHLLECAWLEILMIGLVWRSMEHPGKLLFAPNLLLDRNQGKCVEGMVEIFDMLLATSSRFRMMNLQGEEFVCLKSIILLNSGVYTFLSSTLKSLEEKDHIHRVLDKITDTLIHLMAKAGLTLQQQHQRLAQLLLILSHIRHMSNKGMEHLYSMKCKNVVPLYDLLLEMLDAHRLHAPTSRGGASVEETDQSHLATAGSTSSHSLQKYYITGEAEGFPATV
Details: method as in PMID 25848700. To be noted: estrogen-sensitive T47DKBluc cells; previously reported; read-out: IC50 of previously-reported template compound; cited from earlier work.

Experiment [2] addresses T2, ERα LBD (Homo sapiens, UniProt P03372).
T2 construct: ERα LBD (amino acids 302–552) was cloned into the pAN4 AviTag™ Vector; made in house
T2 sequence (P03372 302-552): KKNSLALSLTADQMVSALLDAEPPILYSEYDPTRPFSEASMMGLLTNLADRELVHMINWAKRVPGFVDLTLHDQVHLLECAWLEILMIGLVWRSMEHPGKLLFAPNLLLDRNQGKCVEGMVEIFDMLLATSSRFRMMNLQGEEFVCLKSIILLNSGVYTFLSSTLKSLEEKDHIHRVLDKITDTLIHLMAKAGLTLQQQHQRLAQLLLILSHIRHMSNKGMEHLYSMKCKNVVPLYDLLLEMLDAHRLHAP
Put plainly: Biolayer interferometry (BLI) direct binding assay. To be noted: biotinylated ERα LBD on streptavidin sensor, 3–100 μM. As to the method:
The direct binding of small molecules to the ERα-LBD was quantified by BLI using an Octet RED apparatus (Pall ForteBio, Menlo Park, CA, USA). ERα LBD (amino acids 302–552) was cloned into the pAN4 AviTag™ Vector, (Avidity, Aurora, CO, USA). Biotinylated ERα-LBD was purified as described previously. Biotinylated protein (bERα LBD at 0.05 mg/mL) was bound to the super streptavidin sensors (Pall ForteBio) overnight at 4 °C in assay buffer (20 mM Tris, pH 7.5, 500 mM NaCl, 0.2 mM tris(2-carboxyethyl)phosphine TCEP, 0.02 mM E2, 5% glycerol and 5% dimethyl sulfoxide (DMSO). The compounds were dissolved in the assay buffer in a two-fold dilution series ranging from 3.1–100 μM. In all experiments, a known AF2-interacting peptide, PGC-1α (Elim Biopharmaceuticals, Hayward, CA, USA) was used as a control to confirm the functionality of the bERα LBD.

The target in experiment [3] is T3, ERα-LBD and FL-PGC1α peptide (Homo sapiens, UniProt P03372).
T3 construct: it was incubated with GST-tagged ERα-LBD (final concentration, 7.25 nM); purchased Life Technologies PV4544
T3 sequence (P03372 311-547 limits assumed): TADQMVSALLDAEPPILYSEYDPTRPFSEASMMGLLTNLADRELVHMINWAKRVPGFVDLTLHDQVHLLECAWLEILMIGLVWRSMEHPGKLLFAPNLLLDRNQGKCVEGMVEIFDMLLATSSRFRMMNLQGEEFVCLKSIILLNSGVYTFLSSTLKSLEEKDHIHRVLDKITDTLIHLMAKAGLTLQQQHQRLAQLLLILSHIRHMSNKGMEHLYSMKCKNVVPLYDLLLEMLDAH
Kind of experiment: LanthaScreen TR-FRET ER Alpha coactivator displacement assay. To be noted: three-fold dilution range, dose-dependent. It is filed as biochemical. As to the method:
The LanthaScreen TR-FRET ER Alpha Coactivator Assay kit (PV4544; Life Technologies) was used as per the manufacturer’s instructions and described previously. To assess the binding of VPC-16464 to the AF2 site, it was incubated with GST-tagged ERα-LBD (final concentration, 7.25 nM) in the presence of a fluorescently-labelled co-activator peptide (fluorescein-PGC-1α) at a final concentration of 250 nM, terbium (Tb)-labelled anti-GST antibody (final concentration, 5 nM) and E2 (final concentration, EC80 […]). Cold SRC-2–3 and PGC-1α peptides were used as positive controls for AF2 site-specific binding. TR-FRET was analysed on a Synergy 4 hybrid microplate reader (BioTek, Winooski, VT, USA) with the settings at 340-nm excitation and 495- and 520-nm emission. The emission ratio (520:495) was analysed and plotted.
For orientation: TR-FRET usually uses a lanthanide donor and a delayed reading to cut background.

Experiment [4] addresses T1, ERα. Kind of experiment: Estrogen-responsive luciferase reporter transcriptional assay in T47DKBluc cells. It is filed as cell-based. To be noted: 1 nM E2, 24 h; for IC50: read-out: IC50 against ERα in the luciferase reporter-based transcriptional assay. The method, then:
T47DKBluc cells (ATCC® CRL-2865^TM, Manassa, VA, USA) stably transfected with a 3X-ERE–promoter–luciferase reporter gene construct, pGL2.TATA.Inr.luc.neo [38], were used to measure inhibition of ERα-driven transcriptional activity of the luciferase reporter.
This assay was performed as described previously. Briefly, ERα-positive T47DKBluc cells were grown in phenol red-free RPMI 1640 supplemented with 10% CSS for 5 days. The cells were seeded on 96-well plates (2 × 10^4 cells/well). After 24 h, the cells were treated with test compounds in the presence of 1 nM E2. Twenty four hours post-treatment, the cells were lysed with 50 μL of 1× passive lysis buffer (Promega, Madison, WI, USA). Twenty microliters of the lysate from each treatment were transferred onto a white, 96-well, flat-bottomed plate (Corning Life Sciences, Corelle, NY, USA), and the luminescent signal was measured after adding 50 μL of the luciferase assay reagent (Promega, Madison, WI, USA) on a Tecan M200Pro microplate reader (Tecan, Menedorf, Switzerland). Differences in growth were normalised against total protein concentration, which was measured by the bicinchoninic acid (BCA) assay.

Take `CCOc1cc(Br)cc(/C=N/NC(=O)c2ccc3c(c2)OCCO3)c1O` [VPC-16230]: the IC50 in experiment [1] was 5.8 µM.

In the case of `CC(=O)N(/N=C1\Sc2ccccc2C1=O)c1ccccc1Cl` [VPC-16464], the “Direct binding to ERα LBD (BLI)” value in experiment [2] is reported as “direct, reversible binding”. In addition, the “Displacement of FL-PGC1α peptide from ERα-LBD AF2 site (TR-FRET)” value in experiment [3] is on record as “successfully displaced”. Also, in experiment [4], the IC50 worked out at 2.7 µM.

With `CC(=O)N(/N=C1\Cc2ccccc2C1=O)c1ccccc1Cl` [VPC-16600], in experiment [2], the “Direct binding to ERα LBD (BLI)” value is reported as “abolished”. For the same molecule, the “IC50 against ERα in the luciferase reporter-based transcriptional assay” value in experiment [4] is “Inactive”.

Regarding `CC(=O)N(/N=C1\Oc2ccccc2C1=O)c1ccccc1Cl` [VPC-16602], the “Direct binding to ERα LBD (BLI)” value in experiment [2] is reported as “abolished”. In experiment [4], the “IC50 against ERα in the luciferase reporter-based transcriptional assay” value is reported as “Inactive”.

Regarding `CC(=O)N(/N=C1\Sc2c(F)cccc2C1=O)c1ccccc1Cl` [VPC-16607], the IC50 in experiment [4] was determined as 2.9 µM.

For the molecule `CC(=O)N(/N=C1\Sc2ccccc2C1=O)c1cccc(C)c1` [compound 16457], in experiment [4], the 50% inhibitory concentration (IC50) stood at 3.78 µM.

In the case of `CC(=O)N(/N=C1\Sc2ccccc2C1=O)c1ccc(C)cc1` [compound 16475], the IC50 in experiment [4] worked out at 12.3 µM.

`CC(=O)N(/N=C1\Sc2ccccc2C1=O)c1ccc(C)c(C)c1` [compound 16484]: in experiment [4], the concentration for half-maximal inhibition (IC50) came out at 9.83 µM.

On to `CC(=O)N(/N=C1\Sc2ccccc2C1=O)c1ccccc1F` [compound 16487], for which, in experiment [4], the concentration for half-maximal inhibition (IC50) stood at 4.64 µM.

Values taken from publication PMC5855801, “Benzothiophenone Derivatives Targeting Mutant Forms of Estrogen Receptor-α in Hormone-Resistant Breast Cancers” (International Journal of Molecular Sciences, 2018).
